Assay [1] has as its target Frizzled-8 (Mus musculus) (UniProt Q61091). The assay can be described thus: Binding affinity to immobilized mouse C-terminal Rhinovirus 3C cleavage site-fused 6xHis-tagged Frizzled-8 CRD (Q33 to G173 resideus) transfected with pDisplay_BirA-ER plasmid in HEK293T cells for biotinylation assessed as protein-compound complex formation at 5 to 50 uM by surface plasmon resonance assay. (Surface plasmon resonance follows binding to a sensor surface in real time, without labels.)

Assay [2] deals with Frizzled-5 (Homo sapiens) (UniProt Q13467). The assay can be described thus: Binding affinity to immobilized human Frizzled-5 CRD (P31 to Y150 resideus) transfected with pDisplay_BirA-ER plasmid in HEK293T cells for biotinylation by surface plasmon resonance assay.
Assay [3] deals with Frizzled-8 (Mus musculus) (UniProt Q61091). Conditions: 8 to 64 uM.
Description: Inhibition of full length mouse Frizzled-8 transfected in Frizzled-1/2/7 knockout HEK293T cells using lentiviral expression system cotransfected with Renilla luciferase assessed as reduction in Wnt3a signaling by measuring luciferase activity at 8 to 64 uM measured after 24 hrs by Dual-Glo luciferase reporter assay
For assay [4], the target named is Frizzled-7 (Homo sapiens) (UniProt O75084). The experiment in a line: Binding affinity to immobilized human Frizzled-7 CRD (Q33 to G173 resideus) transfected with pDisplay_BirA-ER plasmid in HEK293T cells for biotinylation by surface plasmon resonance assay.

Structures are written as SMILES. Calls of active or inactive are those of the source. The rule behind the calls is not given here.

The text below walks through data of ChEMBL document CHEMBL4402568, “Antiepileptic Drug Carbamazepine Binds to a Novel Pocket on the Wnt Receptor Frizzled-8” (J Med Chem, 2020).

Frizzled-8 (Mus musculus), sequence (Q61091 whole entry, the tested form may be a part): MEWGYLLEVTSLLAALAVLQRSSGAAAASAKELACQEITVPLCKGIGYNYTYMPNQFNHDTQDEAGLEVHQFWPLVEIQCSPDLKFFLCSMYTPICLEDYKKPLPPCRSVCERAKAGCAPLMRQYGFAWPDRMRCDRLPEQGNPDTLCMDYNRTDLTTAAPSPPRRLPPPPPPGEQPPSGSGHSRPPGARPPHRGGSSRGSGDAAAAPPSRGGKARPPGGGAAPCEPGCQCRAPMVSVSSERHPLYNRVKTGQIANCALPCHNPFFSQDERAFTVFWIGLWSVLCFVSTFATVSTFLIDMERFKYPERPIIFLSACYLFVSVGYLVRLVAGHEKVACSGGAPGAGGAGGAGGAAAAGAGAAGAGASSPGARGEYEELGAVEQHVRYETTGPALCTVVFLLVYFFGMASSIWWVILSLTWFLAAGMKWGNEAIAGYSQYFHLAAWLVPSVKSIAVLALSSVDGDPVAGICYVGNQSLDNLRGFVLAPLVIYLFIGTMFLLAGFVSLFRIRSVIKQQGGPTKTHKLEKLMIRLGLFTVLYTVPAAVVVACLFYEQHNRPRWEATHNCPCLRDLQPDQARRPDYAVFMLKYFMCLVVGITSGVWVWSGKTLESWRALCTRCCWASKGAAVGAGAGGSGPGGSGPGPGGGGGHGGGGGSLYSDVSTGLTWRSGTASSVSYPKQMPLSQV
Frizzled-5 (Homo sapiens), sequence (Q13467 whole entry): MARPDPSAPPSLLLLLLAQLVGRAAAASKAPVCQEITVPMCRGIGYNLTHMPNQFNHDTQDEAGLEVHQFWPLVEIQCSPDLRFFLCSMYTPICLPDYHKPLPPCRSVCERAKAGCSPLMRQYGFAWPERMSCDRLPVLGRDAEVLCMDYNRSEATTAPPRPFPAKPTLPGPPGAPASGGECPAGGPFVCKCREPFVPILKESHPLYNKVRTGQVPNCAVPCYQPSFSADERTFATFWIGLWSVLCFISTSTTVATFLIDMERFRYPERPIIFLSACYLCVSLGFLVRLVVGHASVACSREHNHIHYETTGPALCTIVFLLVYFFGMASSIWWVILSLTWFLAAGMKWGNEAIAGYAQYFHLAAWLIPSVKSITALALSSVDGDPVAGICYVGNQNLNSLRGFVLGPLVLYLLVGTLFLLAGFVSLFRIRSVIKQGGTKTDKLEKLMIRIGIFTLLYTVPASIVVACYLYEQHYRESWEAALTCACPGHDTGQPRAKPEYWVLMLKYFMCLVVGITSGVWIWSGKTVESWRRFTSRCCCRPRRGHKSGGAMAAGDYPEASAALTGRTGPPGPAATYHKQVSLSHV

Regarding `CCN(CC)CCCC(C)Nc1c2ccc(Cl)cc2nc2ccc(OC)cc12` (stereo not given), in assay [1], the result was inactive.
With `NC(=O)N1c2ccccc2C=Cc2ccccc21`, the outcome in assay [1] was Active. Also, the result in assay [2] and in assay [4] was inactive. Also, the inhibition result in assay [3] was “Active”.
